Measurements reported in ChEMBL document CHEMBL1806438, “Thrombin inhibitors with lipid peroxidation and lipoxygenase inhibitory activities” (Bioorg Med Chem Lett, 2011).

Tests used:
Prothrombin = Prothrombin (Homo sapiens, UniProt P00734); assay: Inhibition of thrombin using S-2238 as substrate after 15 mins by spectrophotometric analysis
[1] = system: Radical scavenging activity; assay: Antioxidant activity assessed as DPPH radical scavenging activity at 50 uM after 60 mins; format: functional
[2] = system: Radical scavenging activity; assay: Antioxidant activity assessed as DPPH radical scavenging activity at 10 uM after 60 mins; format: functional
[3] = Antioxidant activity against AAPH-induced linoleic acid peroxidation by UV spectrophotometry analysis; format: functional
[4] = system: Radical scavenging activity; assay: Antioxidant activity assessed as DPPH radical scavenging activity at 50 uM after 20 mins; format: functional
Glycine max = assay: (§1) Inhibition of soybean lipoxygenase by UV absorbance based assay
[5] = system: Radical scavenging activity; assay: Antioxidant activity assessed as DPPH radical scavenging activity at 10 uM after 20 mins; format: functional
[6] = as §1; design: species or system Glycine max
[7] = Antioxidant activity against AAPH-induced linoleic acid peroxidation at 100 uM by UV spectrophotometry analysis; format: functional

Row | SMILES | Ki (Prothrombin) [µM] | Activity [1] [%] | Activity [2] [%] | IC50 [3] [µM] | Activity [4] [%] | inhibition (Glycine max) [%] | Activity [5] [%] | IC50 [6] [µM] | inhibition [7] [%]
1 | CCOC(=O)CN(Cc1cc(F)cc(F)c1)c1ccc2c(c1)N(C)CC(C)(COc1ccc(C(=N)N)cc1)O2 (configuration not stated) | 0.95 | 10 | 18 | 36 | 8 | 41.7 | 8 | – | –
2 | CC(Cc1ccc(O)c(O)c1)C(C)Cc1ccc(O)c(O)c1 (configuration not stated) | – | 81 | 83 | – | 68 | – | 83 | – | –
3 | CCOC(=O)CN(Cc1ccc(F)cc1)c1ccc2c(c1)N(C)CC(C)(COc1ccc(C(=N)N)cc1)O2 (configuration not stated) | 0.69 | 14 | 24 | 77 | 11 | – | 11 | 73 | –
4 | CCOC(=O)C(=O)N(Cc1cc(F)cc(F)c1)c1ccc2c(c1)N(C)CC(C)(COc1ccc(C(=N)N)cc1)O2 (configuration not stated) | – | 28 | 36 | 69 | 23 | – | 25 | 99 | –
5 | CCOC(=O)CN(Cc1cccc(F)c1)c1ccc2c(c1)OC(C)(COc1ccc(C(=N)N)cc1)CN2C (configuration not stated) | 0.35 | 63 | 85 | 81 | 48 | > 0 | 71 | – | –
6 | CCOC(=O)CN(Cc1ccc(F)cc1)c1ccc2c(c1)OC(C)(COc1ccc(C(=N)N)cc1)CN2C (configuration not stated) | 0.31 | 70 | 93 | 94.5 | 62 | > 0 | 88 | – | –
7 | CCOC(=O)CN(Cc1ccc(F)c(F)c1)c1ccc2c(c1)OC(C)(COc1ccc(C(=N)N)cc1)CN2C (configuration not stated) | 0.43 | 81 | 90 | 70 | 70 | > 0 | 84 | – | –
8 | CCOC(=O)CN(Cc1ccc(F)c(F)c1)c1ccc2c(c1)N(C)CC(C)(COc1ccc(C(=N)N)cc1)O2 (configuration not stated) | 0.66 | 16 | 21 | 68 | 11 | > 0 | 8 | – | –
9 | CCOC(=O)C(=O)N(Cc1cccc(F)c1)c1ccc2c(c1)N(C)CC(C)(COc1ccc(C(=N)N)cc1)O2 (configuration not stated) | – | 14 | 24 | 90 | 11 | > 0 | 12 | – | –
10 | CCOC(=O)CN(Cc1cccc(F)c1)c1ccc2c(c1)N(C)CC(C)(COc1ccc(C(=N)N)cc1)O2 (configuration not stated) | 0.9 | 14 | 23 | 59 | 11 | 9.7 | 10 | – | –
11 | CCOC(=O)CN(Cc1cc(F)cc(F)c1)c1ccc2c(c1)OC(C)(COc1ccc(C(=N)N)cc1)CN2C (configuration not stated) | 0.48 | 68 | 86 | 69 | 54 | > 0 | 75 | – | –
12 | O=C(O)/C=C/c1ccc(O)c(O)c1 [CAFFEIC ACID] | – | – | – | – | – | – | – | 600 | –
13 | CCOC(=O)C(=O)N(Cc1ccc(F)cc1)c1ccc2c(c1)N(C)CC(C)(COc1ccc(C(=N)N)cc1)O2 (configuration not stated) | – | 12 | 21 | 51 | 10 | > 0 | 10 | – | –
14 | Cc1c(C)c2c(c(C)c1O)CCC(C)(C(=O)O)O2 (configuration not stated) | – | – | – | – | – | – | – | – | 63
15 | CCOC(=O)C(=O)N(Cc1ccc(F)c(F)c1)c1ccc2c(c1)N(C)CC(C)(COc1ccc(C(=N)N)cc1)O2 (configuration not stated) | 0.37 | 28 | 46 | 61.5 | 23 | > 0 | 35 | – | –
